Measured values published in ChEMBL document CHEMBL4834472 (J Med Chem, 2021).
Activity calls are given as the source filed them. The rule behind the calls is not given here.

Tests used:
CDK9/cyclin T1 = CDK9/cyclin T1 (Homo sapiens, UniProt P50750); assay: Inhibition of CDK9/cyclin T1 (unknown origin) in presence of [32P]gammaATP by image analyser; format: protein-complex assay
CDK2/Cyclin A2 = CDK2/Cyclin A2 (Homo sapiens, UniProt P24941); assay: Inhibition of CDK2/cyclin A2 (unknown origin) in presence of [32P]gammaATP by image analyser; format: protein-complex assay
MV4-11 [1] = assay: cells; settings: Homo sapiens, MV4-11, 72 h
Description: Antiproliferative activity against human MV4-11 cells assessed as cell death measured after 72 hrs by resazurin dye based assay

BaF3 [2] = assay: Antiproliferative activity against mouse BaF3 cells assessed as cell death measured after 72 hrs by resazurin dye based assay; format: functional; settings: BaF3, 72 h
U-937 = assay: Antiproliferative activity against human U-937 cells assessed as cell death measured after 72 hrs by resazurin dye based assay; format: functional; settings: U-937, 72 h
BaF3 [3] = assay: Antiproliferative activity against mouse BaF3 cells harboring FLt3 ITD mutant assessed as cell death measured after 72 hrs by resazurin dye based assay; format: functional; settings: BaF3, 72 h
[4] = target: T1, Receptor-type tyrosine-protein kinase FLT3 (Homo sapiens, UniProt P36888); assay: Inhibition of wild type FLT3 (unknown origin) using AGLT peptide substrate in presence of [32P]gammaATP by image analyser
T1 sequence (P36888 whole entry): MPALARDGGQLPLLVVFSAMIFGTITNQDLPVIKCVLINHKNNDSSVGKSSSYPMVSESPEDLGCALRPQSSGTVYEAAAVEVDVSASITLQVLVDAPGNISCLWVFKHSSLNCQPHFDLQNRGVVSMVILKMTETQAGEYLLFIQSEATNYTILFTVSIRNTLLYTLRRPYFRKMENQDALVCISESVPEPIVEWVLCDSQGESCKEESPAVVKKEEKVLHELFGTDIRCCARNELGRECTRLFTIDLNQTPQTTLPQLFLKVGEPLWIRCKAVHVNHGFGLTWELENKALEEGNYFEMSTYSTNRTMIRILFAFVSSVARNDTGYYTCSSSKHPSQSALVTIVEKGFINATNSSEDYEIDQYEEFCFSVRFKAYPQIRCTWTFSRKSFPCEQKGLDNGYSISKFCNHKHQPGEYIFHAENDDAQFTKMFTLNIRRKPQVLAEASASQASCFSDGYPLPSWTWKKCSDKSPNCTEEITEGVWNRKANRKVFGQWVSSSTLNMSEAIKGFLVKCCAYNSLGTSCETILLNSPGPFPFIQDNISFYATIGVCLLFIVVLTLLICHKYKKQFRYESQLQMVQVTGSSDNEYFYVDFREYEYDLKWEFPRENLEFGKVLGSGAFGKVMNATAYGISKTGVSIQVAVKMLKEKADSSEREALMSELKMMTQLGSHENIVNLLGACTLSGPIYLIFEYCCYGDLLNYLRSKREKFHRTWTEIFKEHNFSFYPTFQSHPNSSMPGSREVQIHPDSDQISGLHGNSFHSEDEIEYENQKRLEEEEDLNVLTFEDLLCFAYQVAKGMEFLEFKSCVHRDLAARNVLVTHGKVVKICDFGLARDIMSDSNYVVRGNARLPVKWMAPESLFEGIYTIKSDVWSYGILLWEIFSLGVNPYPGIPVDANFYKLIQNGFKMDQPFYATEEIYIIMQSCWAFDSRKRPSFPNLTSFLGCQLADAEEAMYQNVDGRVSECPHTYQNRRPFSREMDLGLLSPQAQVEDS

MV4-11 [5] = assay: Induction of apoptosis in human MV4-11 cells assessed as caspase 7 activation using fluorescent substrate Ac-DEVD-AMC at 100 nM incubated for 24 hrs by Western blot analysis; format: functional, cell-based
[6] = target: Receptor-type tyrosine-protein kinase FLT3 (Homo sapiens, UniProt P36888, ITD)
THP-1 = assay: Antiproliferative activity against human THP-1 cells assessed as cell death measured after 72 hrs by resazurin dye based assay; format: functional; settings: THP-1, 72 h
CCRF-CEM = assay: Antiproliferative activity against human CCRF-CEM cells assessed as cell death measured after 72 hrs by resazurin dye based assay; format: functional
[7] = target: Cyclin-dependent kinase 2/cyclin E1 (Homo sapiens, UniProt P24941); assay: Inhibition of CDK2/cyclin E1 (unknown origin) in presence of [32P]gammaATP by image analyser; format: protein-complex assay
[8] = target: Cyclin-dependent kinase 4/cyclin D1 (Homo sapiens, UniProt P11802); assay: Inhibition of CDK4/cyclin D1 (unknown origin) in presence of [32P]gammaATP by image analyser; format: protein-complex assay
[9] = target: Receptor-type tyrosine-protein kinase FLT3 (Homo sapiens) (UniProt P36888); assay: Inhibition of FLT3 in human MV4-11 cells assessed as ERK1/2 phosphorylation at 20 to 100 nM incubated for 1 hrs by Western blot analysis; format: cell-based; settings: dose 20-100 nM
CDK2/Cyclin A1 = CDK2/Cyclin A1 (Homo sapiens, UniProt P24941); format: protein-complex assay
Description: Inhibition of CDK2/Cyclin A1 (unknown origin) at 1 uM using histone H1 as substrate preincubated for 20 mins followed by 33P-ATP addition and measured after 2 hrs by filter binding method

[10] = target: Receptor-type tyrosine-protein kinase FLT3 (Homo sapiens) (UniProt P36888); assay: Inhibition of FLT3 in human MV4-11 cells assessed as STAT5 phosphorylation at Y694 at 20 to 100 nM incubated for 1 hrs by Western blot analysis; format: cell-based; settings: dose 20-100 nM
[11] = target: Cyclin-dependent kinase 1/cyclin B1 (Homo sapiens, UniProt P06493); assay: Inhibition of CDK1/cyclin B1 (unknown origin) in presence of [32P]gammaATP by image analyser; format: protein-complex assay
[12] = target: Receptor-type tyrosine-protein kinase FLT3 (Homo sapiens) (UniProt P36888); assay: Inhibition of FLT3 autophosphorylation in human MV4-11 cells at 20 to 100 nM incubated for 1 hrs by Western blot analysis; format: cell-based; settings: dose 20-100 nM
SEM cells = assay: Antiproliferative activity against human SEM cells assessed as cell death measured after 72 hrs by resazurin dye based assay; format: functional
MV4-11 [13] = assay: Induction of apoptosis in human MV4-11 cells assessed as increase in cleaved PARP1 level at 100 nM incubated for 24 hrs by Western blot analysis; format: functional, cell-based
MOLM-14 [14] = assay: Antiproliferative activity against human MOLM-14 cells harboring D835Y mutant assessed as cell death measured after 72 hrs by resazurin dye based assay; format: functional; settings: MOLM-14, 72 h
MOLM-14 [15] = assay: Antiproliferative activity against human MOLM-14 cells assessed as cell death measured after 72 hrs by resazurin dye based assay; format: functional; settings: MOLM-14, 72 h
K562 = assay: cells; settings: Homo sapiens, K562, 72 h
Description: Antiproliferative activity against human K562 cells assessed as cell death measured after 72 hrs by resazurin dye based assay

MV4-11 [16] = assay: Induction of apoptosis in human MV4-11 cells assessed as effect on Bcl2 level at 100 nM incubated for 24 hrs by Western blot analysis; format: functional, cell-based
MOLM-13 = assay: Antiproliferative activity against human MOLM-13 cells assessed as cell death measured after 72 hrs by resazurin dye based assay; format: functional; settings: MOLM-13, 72 h
MV4-11 [17] = assay: Induction of apoptosis in human MV4-11 cells assessed as caspase 3 activation using fluorescent substrate Ac-DEVD-AMC at 100 nM incubated for 24 hrs by Western blot analysis; format: functional, cell-based
MOLM-14 [18] = assay: Antiproliferative activity against human MOLM-14 cells harboring F691L mutant assessed as cell death measured after 72 hrs by resazurin dye based assay; format: functional; settings: MOLM-14, 72 h
MV4-11 [19] = assay: Induction of apoptosis in human MV4-11 cells assessed as decrease in MCL1 level at 100 nM incubated for 24 hrs by Western blot analysis; format: functional, cell-based
[20] = test system: Receptor-type tyrosine-protein kinase FLT3 (Homo sapiens), P36888 [D835Y]; assay: Inhibition of FLT3 D835Y (unknown origin) assessed as residual activity at 500 nM
[21] = target: Maternal embryonic leucine zipper kinase (Homo sapiens) (UniProt Q14680); assay: Inhibition of MELK (unknown origin) assessed as residual activity at 500 nM
[22] = target: NT-3 growth factor receptor (Homo sapiens) (UniProt Q16288); assay: Inhibition of TRKC (unknown origin) assessed as residual activity at 500 nM
[23] = target: MAP kinase-interacting serine/threonine-protein kinase 2 (Homo sapiens) (UniProt Q9HBH9); assay: Inhibition of MNK2 (unknown origin) assessed as residual activity at 500 nM
[24] = target: cGMP-dependent protein kinase 1 (Homo sapiens) (UniProt Q13976); assay: Inhibition of PKG1alpha (unknown origin) assessed as residual activity at 500 nM
[25] = target: Dual specificity protein kinase CLK1 (Homo sapiens) (UniProt P49759); assay: Inhibition of CLK1 (unknown origin) assessed as residual activity at 500 nM
[26] = target: Rho-associated protein kinase 2 (Homo sapiens) (UniProt O75116); assay: Inhibition of ROCK2 (unknown origin) assessed as residual activity at 500 nM
[27] = target: Ribosomal protein S6 kinase beta-1 (Homo sapiens) (UniProt P23443); assay: Inhibition of p70S6K (unknown origin) assessed as residual activity at 500 nM
[28] = target: CDK2/Cyclin A1 (Homo sapiens) (UniProt P24941+P78396); assay: Inhibition of CDK2/cyclin A1 (unknown origin) assessed as residual activity at 500 nM; format: protein-complex assay
[29] = target: Ribosomal protein S6 kinase alpha-4 (Homo sapiens) (UniProt O75676); assay: Inhibition of MSK2 (unknown origin) assessed as residual activity at 500 nM
[30] = target: Lymphokine-activated killer T-cell-originated protein kinase (Homo sapiens) (UniProt Q96KB5); assay: Inhibition of TOPK (unknown origin) assessed as residual activity at 500 nM
[31] = target: Leucine-rich repeat serine/threonine-protein kinase 2 (Homo sapiens) (UniProt Q5S007); assay: Inhibition of LRRK2 (unknown origin) assessed as residual activity at 500 nM
[32] = test system: Receptor-type tyrosine-protein kinase FLT3 (Homo sapiens), P36888 [UNDEFINED MUTATION]; assay: Inhibition of FLT3 ITD (unknown origin) assessed as residual activity at 500 nM
[33] = target: Dual specificity tyrosine-phosphorylation-regulated kinase 1B (Homo sapiens) (UniProt Q9Y463); assay: Inhibition of DYRK1B (unknown origin) assessed as residual activity at 500 nM

Sequence of Cyclin-dependent kinase 1/cyclin B1 (P06493 whole entry): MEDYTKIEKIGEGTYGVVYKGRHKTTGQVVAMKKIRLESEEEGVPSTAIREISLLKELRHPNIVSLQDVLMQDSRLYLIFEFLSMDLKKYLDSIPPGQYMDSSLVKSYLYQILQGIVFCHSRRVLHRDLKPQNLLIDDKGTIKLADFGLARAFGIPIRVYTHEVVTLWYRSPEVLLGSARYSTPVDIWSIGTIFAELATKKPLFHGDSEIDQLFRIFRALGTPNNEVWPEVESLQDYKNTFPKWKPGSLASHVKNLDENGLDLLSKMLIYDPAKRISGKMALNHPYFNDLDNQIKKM
Sequence of Cyclin-dependent kinase 1/cyclin B1 (P14635 whole entry, further chain): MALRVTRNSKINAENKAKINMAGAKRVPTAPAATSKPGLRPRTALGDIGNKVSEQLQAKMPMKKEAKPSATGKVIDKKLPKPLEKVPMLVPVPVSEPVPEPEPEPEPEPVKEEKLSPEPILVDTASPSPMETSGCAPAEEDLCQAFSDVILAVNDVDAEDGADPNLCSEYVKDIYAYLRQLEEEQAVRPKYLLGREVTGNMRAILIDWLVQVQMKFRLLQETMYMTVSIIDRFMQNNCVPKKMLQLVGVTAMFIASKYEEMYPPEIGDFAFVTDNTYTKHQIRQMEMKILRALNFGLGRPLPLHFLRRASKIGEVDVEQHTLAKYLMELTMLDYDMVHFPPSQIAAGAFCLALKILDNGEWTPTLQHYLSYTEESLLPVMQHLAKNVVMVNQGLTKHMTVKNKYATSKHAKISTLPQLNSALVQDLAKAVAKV
Sequence of CDK9/cyclin T1 (O60563 whole entry): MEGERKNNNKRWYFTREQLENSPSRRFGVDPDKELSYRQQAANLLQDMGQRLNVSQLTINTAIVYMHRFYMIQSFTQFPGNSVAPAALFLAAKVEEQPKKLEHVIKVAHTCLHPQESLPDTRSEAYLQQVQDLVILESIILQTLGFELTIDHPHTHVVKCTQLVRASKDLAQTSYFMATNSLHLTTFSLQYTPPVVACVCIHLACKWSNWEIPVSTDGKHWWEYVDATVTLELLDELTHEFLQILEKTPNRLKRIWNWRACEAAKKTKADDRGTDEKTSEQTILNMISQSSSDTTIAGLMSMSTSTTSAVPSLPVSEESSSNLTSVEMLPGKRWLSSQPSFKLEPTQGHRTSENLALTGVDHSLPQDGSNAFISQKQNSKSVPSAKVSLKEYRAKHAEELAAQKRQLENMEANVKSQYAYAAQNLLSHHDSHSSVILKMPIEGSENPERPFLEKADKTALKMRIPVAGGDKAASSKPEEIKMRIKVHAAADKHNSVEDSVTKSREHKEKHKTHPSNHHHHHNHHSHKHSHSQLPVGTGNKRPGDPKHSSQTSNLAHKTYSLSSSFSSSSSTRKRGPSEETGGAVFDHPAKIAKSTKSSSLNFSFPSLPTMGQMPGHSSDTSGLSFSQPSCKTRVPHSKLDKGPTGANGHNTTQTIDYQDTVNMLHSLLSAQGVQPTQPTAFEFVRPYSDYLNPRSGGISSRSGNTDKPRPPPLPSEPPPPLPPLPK
Sequence of CDK9/cyclin T1 (P50750 whole entry): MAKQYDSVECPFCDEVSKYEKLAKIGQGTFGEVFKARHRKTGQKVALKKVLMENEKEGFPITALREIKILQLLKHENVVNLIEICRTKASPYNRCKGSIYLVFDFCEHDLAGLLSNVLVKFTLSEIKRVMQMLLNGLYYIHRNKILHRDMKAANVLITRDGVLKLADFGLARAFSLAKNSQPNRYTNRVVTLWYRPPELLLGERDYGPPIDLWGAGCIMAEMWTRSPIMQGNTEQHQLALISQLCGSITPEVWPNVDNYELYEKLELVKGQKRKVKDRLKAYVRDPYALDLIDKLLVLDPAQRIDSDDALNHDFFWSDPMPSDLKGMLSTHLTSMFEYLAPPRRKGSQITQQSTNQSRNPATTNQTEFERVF
Sequence of Cyclin-dependent kinase 4/cyclin D1 (P11802 whole entry): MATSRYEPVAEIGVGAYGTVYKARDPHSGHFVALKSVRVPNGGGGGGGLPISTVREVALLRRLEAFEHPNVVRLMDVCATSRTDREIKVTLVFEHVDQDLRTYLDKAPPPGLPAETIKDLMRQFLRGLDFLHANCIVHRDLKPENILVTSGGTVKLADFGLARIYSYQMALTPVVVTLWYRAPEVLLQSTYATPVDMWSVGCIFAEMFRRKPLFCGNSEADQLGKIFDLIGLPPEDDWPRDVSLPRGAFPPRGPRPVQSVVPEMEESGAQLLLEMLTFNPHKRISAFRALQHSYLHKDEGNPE
Sequence of Cyclin-dependent kinase 4/cyclin D1 (P24385 whole entry, further chain): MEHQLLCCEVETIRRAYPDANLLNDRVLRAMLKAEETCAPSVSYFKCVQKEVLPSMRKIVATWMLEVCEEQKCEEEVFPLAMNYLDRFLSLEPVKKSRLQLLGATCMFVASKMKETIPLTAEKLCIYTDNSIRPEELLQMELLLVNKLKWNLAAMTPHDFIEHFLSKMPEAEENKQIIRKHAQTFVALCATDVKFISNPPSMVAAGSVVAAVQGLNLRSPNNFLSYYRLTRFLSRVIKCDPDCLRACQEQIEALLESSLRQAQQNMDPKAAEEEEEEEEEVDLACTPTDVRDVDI
Sequence of Dual specificity protein kinase CLK1 (Homo sapiens) (P49759 whole entry, looked up): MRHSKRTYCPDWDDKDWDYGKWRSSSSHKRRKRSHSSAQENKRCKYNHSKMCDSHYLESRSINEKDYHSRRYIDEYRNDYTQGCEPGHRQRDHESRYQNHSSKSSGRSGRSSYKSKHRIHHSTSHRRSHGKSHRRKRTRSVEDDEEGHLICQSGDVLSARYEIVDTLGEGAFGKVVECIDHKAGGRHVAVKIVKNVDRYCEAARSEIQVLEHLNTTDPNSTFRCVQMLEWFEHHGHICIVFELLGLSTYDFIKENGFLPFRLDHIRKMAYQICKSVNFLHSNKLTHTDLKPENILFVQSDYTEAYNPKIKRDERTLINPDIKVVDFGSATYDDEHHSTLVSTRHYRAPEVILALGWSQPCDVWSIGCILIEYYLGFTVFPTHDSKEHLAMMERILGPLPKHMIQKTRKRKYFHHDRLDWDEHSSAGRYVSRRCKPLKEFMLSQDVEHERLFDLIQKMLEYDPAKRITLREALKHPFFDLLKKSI
Sequence of Ribosomal protein S6 kinase beta-1 (Homo sapiens) (P23443 whole entry, looked up): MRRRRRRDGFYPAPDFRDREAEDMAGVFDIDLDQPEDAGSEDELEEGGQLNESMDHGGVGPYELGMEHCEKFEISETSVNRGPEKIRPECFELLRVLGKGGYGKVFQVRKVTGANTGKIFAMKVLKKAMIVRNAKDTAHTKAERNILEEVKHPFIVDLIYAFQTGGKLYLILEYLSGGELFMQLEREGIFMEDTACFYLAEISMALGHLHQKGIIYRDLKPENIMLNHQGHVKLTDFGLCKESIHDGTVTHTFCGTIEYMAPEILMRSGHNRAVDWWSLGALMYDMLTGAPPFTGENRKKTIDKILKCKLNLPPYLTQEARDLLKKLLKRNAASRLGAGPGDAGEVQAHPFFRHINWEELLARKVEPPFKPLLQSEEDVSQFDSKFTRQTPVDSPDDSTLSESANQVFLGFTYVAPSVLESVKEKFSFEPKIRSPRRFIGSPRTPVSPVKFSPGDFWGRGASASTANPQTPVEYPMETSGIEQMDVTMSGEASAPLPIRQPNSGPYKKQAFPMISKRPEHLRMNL
Sequence of cGMP-dependent protein kinase 1 (Homo sapiens) (Q13976 whole entry): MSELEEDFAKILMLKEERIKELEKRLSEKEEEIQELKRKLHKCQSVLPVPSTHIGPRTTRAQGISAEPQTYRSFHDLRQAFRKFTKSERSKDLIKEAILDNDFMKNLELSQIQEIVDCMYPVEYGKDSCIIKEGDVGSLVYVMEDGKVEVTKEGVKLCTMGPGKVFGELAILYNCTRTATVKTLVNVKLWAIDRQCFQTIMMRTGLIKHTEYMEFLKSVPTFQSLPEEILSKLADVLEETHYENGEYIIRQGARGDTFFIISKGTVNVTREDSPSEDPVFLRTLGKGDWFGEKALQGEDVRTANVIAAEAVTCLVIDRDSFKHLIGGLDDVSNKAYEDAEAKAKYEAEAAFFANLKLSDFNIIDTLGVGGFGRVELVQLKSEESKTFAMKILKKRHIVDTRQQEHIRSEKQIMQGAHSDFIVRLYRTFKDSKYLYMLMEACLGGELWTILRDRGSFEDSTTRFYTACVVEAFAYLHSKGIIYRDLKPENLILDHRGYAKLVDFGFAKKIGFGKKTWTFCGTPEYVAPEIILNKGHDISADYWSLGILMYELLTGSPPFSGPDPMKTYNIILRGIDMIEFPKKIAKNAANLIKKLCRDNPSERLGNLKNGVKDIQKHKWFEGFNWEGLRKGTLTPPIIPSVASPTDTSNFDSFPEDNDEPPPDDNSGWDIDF
Sequence of Maternal embryonic leucine zipper kinase (Homo sapiens) (Q14680 whole entry, looked up): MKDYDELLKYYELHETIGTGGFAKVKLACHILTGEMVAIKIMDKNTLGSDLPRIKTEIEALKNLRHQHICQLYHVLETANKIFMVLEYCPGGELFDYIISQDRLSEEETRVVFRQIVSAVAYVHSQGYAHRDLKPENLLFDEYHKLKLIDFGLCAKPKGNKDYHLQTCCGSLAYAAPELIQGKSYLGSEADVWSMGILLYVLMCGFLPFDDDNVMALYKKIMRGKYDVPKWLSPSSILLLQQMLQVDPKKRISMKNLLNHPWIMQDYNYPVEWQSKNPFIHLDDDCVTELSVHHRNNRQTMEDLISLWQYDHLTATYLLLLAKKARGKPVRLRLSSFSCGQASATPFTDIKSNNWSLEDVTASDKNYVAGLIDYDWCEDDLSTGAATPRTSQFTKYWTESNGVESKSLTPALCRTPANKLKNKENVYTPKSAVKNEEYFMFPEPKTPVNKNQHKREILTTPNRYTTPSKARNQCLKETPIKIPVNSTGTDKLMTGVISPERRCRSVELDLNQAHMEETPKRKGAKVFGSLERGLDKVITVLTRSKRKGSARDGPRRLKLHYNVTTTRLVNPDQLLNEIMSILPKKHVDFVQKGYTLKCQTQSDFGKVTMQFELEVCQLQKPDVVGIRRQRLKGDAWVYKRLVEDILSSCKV

Row | Compound | IC50 (CDK9/cyclin T1) | IC50 (CDK2/Cyclin A2) | IC50 (MV4-11 [1]) | IC50 (BaF3 [2]) | IC50 (U-937) | IC50 (BaF3 [3]) | IC50 [4] | Activity (MV4-11 [5]) | IC50 [6] | IC50 (THP-1) | IC50 (CCRF-CEM) | IC50 [7] | IC50 [8] | inhibition [9] | IC50 (CDK2/Cyclin A1) | inhibition [10] | IC50 [11] | inhibition [12] | IC50 (SEM cells) | IC50 (K562) | also measured
1 | Cc1n[nH]c2cc(F)c3nc(-c4c[nH]nc4C(F)(F)F)c4c(c3c12)CCCC4 | > 1000 nM | 158 nM | 20 nM | 5980 nM | 2580 nM | 16 nM | 7 nM | Active | 1 nM | 2850 nM | 5730 nM | 182 nM | > 1000 nM | inactive | 158 nM | Active | 140 nM | Active | 111 nM | 9200 nM | Activity (MV4-11 [13]): Active; IC50 (MOLM-14 [14]): 7 nM; IC50 (MOLM-14 [15]): 14 nM; Activity (MV4-11 [16]): Active; IC50 (MOLM-13): 7 nM; Activity (MV4-11 [17]): Active; IC50 (MOLM-14 [18]): 48 nM; Activity (MV4-11 [19]): Active
2 | Fc1cc2[nH]ncc2c2c3c(c(-c4c[nH]nc4C(F)(F)F)nc12)CCCC3 | 538 nM | 39 nM | 7 nM | 3880 nM | 2240 nM | 42 nM | 31 nM | Active | 12 nM | 3460 nM | 3740 nM | 33 nM | > 1000 nM | inactive | 39 nM | Active | 52 nM | Active | 180 nM | 7230 nM | Activity (MV4-11 [13]): Active; IC50 (MOLM-14 [14]): 17 nM; IC50 (MOLM-14 [15]): 28 nM; Activity (MV4-11 [16]): Active; IC50 (MOLM-13): 6 nM; Activity (MV4-11 [17]): Active; IC50 (MOLM-14 [18]): 42 nM; Activity (MV4-11 [19]): Active
3 | FC(F)(F)c1n[nH]cc1-c1nc2ccc3[nH]ncc3c2c2c1CCCC2 | – | – | 71 nM | – | – | – | – | – | – | – | – | – | – | – | 39 nM | – | – | – | – | 8590 nM | Activity [20]: < 2.5%; Activity [21]: 4%; Activity [22]: 4%; Activity [23]: < 25%; Activity [24]: < 25%; Activity [25]: 4%; Activity [26]: < 25%; Activity [27]: < 25%; Activity [28]: < 25%; Activity [29]: < 25%; Activity [30]: < 25%; Activity [31]: 4%; Activity [32]: < 2.5%; Activity [33]: 4%
